Key:
[1] = biological target: T1, c-kit kinase (Homo sapiens, UniProt P10721); assay: c-Kit biochemical assay, AlphaScreen, 10 μM ATP; conditions: c-kit biochemical inhibitory activity; read-out: Biochemical activity (IC50 μM) Kit
T1 construct: The c-kit (or kinase domain thereof) is an active kinase in AlphaScreen; poly-Histidine tag (in-house protein only) (cleaved yes); host or cells: E. coli BL21(DE3)RIL, co-expressed with PTP1B
How it was run: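 His-tagged c-Kit expressed in E. coli with co-expressed PTP1B (dephosphorylated), tag removed; 0.1 ng per reaction with biotinylated-peptide substrate in 50 mM HEPES pH 7.2, 5 mM MgCl2, 5 mM MnCl2, 5% DMSO, 10 μM ATP, 1 h at room temperature. Phosphorylation detected by AlphaScreen (streptavidin donor, PY20 acceptor beads); IC50 from 8-point 1:3 dilution series.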

[2] = biological target: T2, c-kit mutant D816V (Homo sapiens, UniProt P10721, D816V/DEL694-753); assay: c-Kit mutant D816V biochemical assay, AlphaScreen; conditions: c-kit D816V biochemical inhibitory activity; read-out: Biochemical activity (IC50 μM) Kit D816V
T2 construct: residues 551-934, kinase insertion domain residues 694-753 deleted; 6x-histidine (N); made in house; host or cells: E. coli Arctic Express (DE3) RIL (Stratagene)
T2 sequence (P10721 with tags, fused parts or gaps DEL694-753/D816V): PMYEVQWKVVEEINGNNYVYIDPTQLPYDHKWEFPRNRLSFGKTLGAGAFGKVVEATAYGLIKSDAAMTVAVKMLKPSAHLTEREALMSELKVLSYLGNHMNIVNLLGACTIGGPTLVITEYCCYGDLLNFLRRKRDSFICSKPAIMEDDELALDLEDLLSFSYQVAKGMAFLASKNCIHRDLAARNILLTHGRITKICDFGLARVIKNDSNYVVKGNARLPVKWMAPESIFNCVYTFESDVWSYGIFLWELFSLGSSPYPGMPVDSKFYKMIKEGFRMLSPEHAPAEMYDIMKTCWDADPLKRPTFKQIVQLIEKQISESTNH
How it was run: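 Eight-point, threefold compound series incubated 30 min at room temperature with E. coli-produced D816V kinase, 10 μM ATP, Mg2+/Mn2+ HEPES buffer pH 7.2 and 5% DMSO. After EDTA stop, streptavidin and anti-phosphotyrosine (PY20) AlphaScreen beads gave the read-out, and IC50 was fitted from the concentration–signal curve.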

T1 sequence (P10721 26-976): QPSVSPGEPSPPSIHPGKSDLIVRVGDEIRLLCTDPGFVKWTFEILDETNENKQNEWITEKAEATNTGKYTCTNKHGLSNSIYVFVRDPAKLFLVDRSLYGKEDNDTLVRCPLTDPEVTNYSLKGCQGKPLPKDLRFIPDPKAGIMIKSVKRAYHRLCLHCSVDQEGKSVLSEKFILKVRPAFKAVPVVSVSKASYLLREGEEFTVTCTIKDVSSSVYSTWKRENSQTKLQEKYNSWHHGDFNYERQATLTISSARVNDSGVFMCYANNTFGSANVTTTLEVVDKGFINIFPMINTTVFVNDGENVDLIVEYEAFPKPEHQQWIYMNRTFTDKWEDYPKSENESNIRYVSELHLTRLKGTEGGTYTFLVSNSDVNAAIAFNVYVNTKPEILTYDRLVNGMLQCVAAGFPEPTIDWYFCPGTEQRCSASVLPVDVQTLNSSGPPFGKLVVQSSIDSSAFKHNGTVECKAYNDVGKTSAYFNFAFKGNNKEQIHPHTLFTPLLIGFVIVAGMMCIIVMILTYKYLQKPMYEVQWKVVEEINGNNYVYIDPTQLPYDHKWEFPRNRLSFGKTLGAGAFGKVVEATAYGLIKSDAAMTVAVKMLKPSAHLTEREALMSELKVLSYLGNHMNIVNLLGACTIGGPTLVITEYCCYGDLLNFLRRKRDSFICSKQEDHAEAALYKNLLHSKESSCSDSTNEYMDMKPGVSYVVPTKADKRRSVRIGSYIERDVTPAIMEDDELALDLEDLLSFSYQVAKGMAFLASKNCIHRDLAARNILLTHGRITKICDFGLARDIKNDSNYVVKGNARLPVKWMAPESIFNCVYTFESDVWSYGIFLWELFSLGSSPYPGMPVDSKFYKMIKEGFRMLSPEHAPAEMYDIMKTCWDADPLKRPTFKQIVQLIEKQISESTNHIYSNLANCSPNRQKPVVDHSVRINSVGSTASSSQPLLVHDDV

O=C(NCc1ccc(F)cc1)N1CCN(c2ncnc3[nH]c(-c4cccnc4)cc23)CC1 [P-0222, N-[(4-fluorophenyl)methyl]-4-[6-(3-pyridyl)-7H-pyrrolo[2,3-d]pyrimidin-4-yl]piperazine-1-carboxamide]
IC50 [1]: 1 to 10 µM
IC50 [2]: 1 to 10 µM

O=C(Nc1cccc(C(F)(F)F)c1)N1CCN(c2ncnc3[nH]c(-c4cccnc4)cc23)CC1 [P-0223, 4-[6-(3-pyridyl)-7H-pyrrolo[2,3-d]pyrimidin-4-yl]-N-[3-(trifluoromethyl)phenyl]piperazine-1-carboxamide]
IC50 [1]: 0.0001 to 1 µM
IC50 [2]: 0.0001 to 1 µM

O=C(Nc1ccc(OC(F)(F)F)cc1)N1CCN(c2ncnc3[nH]c(-c4cccnc4)cc23)CC1 [P-0224, 4-[6-(3-pyridyl)-7H-pyrrolo[2,3-d]pyrimidin-4-yl]-N-[4-(trifluoromethoxy)phenyl]piperazine-1-carboxamide]
IC50 [1]: 0.0001 to 1 µM
IC50 [2]: 0.0001 to 1 µM

CCOc1ccc(NC(=O)N2CCN(c3ncnc4[nH]c(-c5cccnc5)cc34)CC2)cc1 [P-0225, N-(4-ethoxyphenyl)-4-[6-(3-pyridyl)-7H-pyrrolo[2,3-d]pyrimidin-4-yl]piperazine-1-carboxamide]
IC50 [1]: 10 to 200 µM
IC50 [2]: 1 to 10 µM

O=C(NCc1ccc(F)cc1)N1CCN(c2ncnc3[nH]cc(-c4ccccc4)c23)CC1 [P-0226, N-[(4-fluorophenyl)methyl]-4-(5-phenyl-7H-pyrrolo[2,3-d]pyrimidin-4-yl)piperazine-1-carboxamide]
IC50 [1]: 1 to 10 µM
IC50 [2]: 10 to 200 µM

COc1cc(NC(=O)N2CCN(c3ncnc4[nH]c(-c5cccnc5)cc34)CC2)cc(OC)c1 [P-0229, N-(3,5-dimethoxyphenyl)-4-[6-(3-pyridyl)-7H-pyrrolo[2,3-d]pyrimidin-4-yl]piperazine-1-carboxamide]
IC50 [1]: 1 to 10 µM
IC50 [2]: 0.0001 to 1 µM

CC(C)(C)OC(=O)N1CCN(c2ncnc3[nH]c(-c4cccnc4)cc23)CC1 [P-0232, tert-butyl 4-[6-(3-pyridyl)-7H-pyrrolo[2,3-d]pyrimidin-4-yl]piperazine-1-carboxylate]
IC50 [1]: 10 to 200 µM
IC50 [2]: 10 to 200 µM

c1nc(N2CCNCC2)c2cc[nH]c2n1 [P-0233, 4-piperazin-1-yl-7H-pyrrolo[2,3-d]pyrimidine]
IC50 [1]: 10 to 200 µM
IC50 [2]: 10 to 200 µM

COc1ccc(C(=O)N2CCN(c3ncnc4[nH]ccc34)CC2)cc1 [P-0234, (4-methoxyphenyl)-[4-(7H-pyrrolo[2,3-d]pyrimidin-4-yl)piperazin-1-yl]methanone]
IC50 [1]: 10 to 200 µM
IC50 [2]: 10 to 200 µM

COc1ccc(NC(=O)N2CCN(c3ncnc4[nH]ccc34)CC2)cc1 [P-0235, N-(4-methoxyphenyl)-4-(7H-pyrrolo[2,3-d]pyrimidin-4-yl)piperazine-1-carboxamide]
IC50 [1]: 10 to 200 µM
IC50 [2]: 1 to 10 µM

CCCNC(=O)N1CCN(c2ncnc3[nH]c(-c4ccccc4)cc23)CC1 [P-0236, 4-(6-phenyl-7H-pyrrolo[2,3-d]pyrimidin-4-yl)-N-propyl-piperazine-1-carboxamide]
IC50 [1]: 1 to 10 µM
IC50 [2]: 10 to 200 µM

O=C(Nc1ccccc1Cl)N1CCN(c2ncnc3[nH]c(-c4ccccc4)cc23)CC1 [P-0237, N-(2-chlorophenyl)-4-(6-phenyl-7H-pyrrolo[2,3-d]pyrimidin-4-yl)piperazine-1-carboxamide]
IC50 [1]: 0.0001 to 1 µM
IC50 [2]: 1 to 10 µM

COc1cc(NC(=O)N2CCN(c3ncnc4[nH]c(-c5ccccc5)cc34)CC2)cc(OC)c1 [P-0239, N-(3,5-dimethoxyphenyl)-4-(6-phenyl-7H-pyrrolo[2,3-d]pyrimidin-4-yl)piperazine-1-carboxamide]
IC50 [1]: 0.0001 to 1 µM
IC50 [2]: 1 to 10 µM

CCCNS(=O)(=O)N1CCN(c2ncnc3[nH]c(-c4ccccc4)cc23)CC1 [P-0241, 4-(6-phenyl-7H-pyrrolo[2,3-d]pyrimidin-4-yl)-N-propyl-piperazine-1-sulfonamide]
IC50 [1]: 1 to 10 µM
IC50 [2]: 0.0001 to 1 µM

O=C(NCc1ccc(F)cc1)N1CCN(c2ncnc3[nH]c(-c4ccccc4)cc23)CC1 [P-0242, N-[(4-fluorophenyl)methyl]-4-(6-phenyl-7H-pyrrolo[2,3-d]pyrimidin-4-yl)piperazine-1-carboxamide]
IC50 [1]: 0.0001 to 1 µM
IC50 [2]: 1 to 10 µM

COc1cc2ncnc(-c3ccc(S(=O)(=O)Nc4ccc(Cl)cc4)cc3F)c2cc1OCCCN1CCOCC1 [P-0247, N-(4-chlorophenyl)-3-fluoro-4-[7-methoxy-6-(3-morpholinopropoxy)quinazolin-4-yl]benzenesulfonamide]
IC50 [1]: 1 to 10 µM
IC50 [2]: 0.0001 to 1 µM

COc1cc2ncnc(-c3ccc(S(=O)(=O)Nc4ccc(F)cc4)cc3F)c2cc1OCCCN1CCOCC1 [P-0248, 3-fluoro-N-(4-fluorophenyl)-4-[7-methoxy-6-(3-morpholinopropoxy)quinazolin-4-yl]benzenesulfonamide]
IC50 [1]: 10 to 200 µM
IC50 [2]: 1 to 10 µM

COc1ccc(S(=O)(=O)Nc2ccc(-c3ncnc4cc(OC)c(OCCCN5CCOCC5)cc34)c(F)c2)cc1 [P-0249, N-[3-fluoro-4-[7-methoxy-6-(3-morpholinopropoxy)quinazolin-4-yl]phenyl]-4-methoxy-benzenesulfonamide]
IC50 [1]: 1 to 10 µM
IC50 [2]: 0.0001 to 1 µM

COc1cc2ncnc(-c3ccc(NS(=O)(=O)c4ccc(Cl)cc4)cc3F)c2cc1OCCCN1CCOCC1 [P-0250, 4-chloro-N-[3-fluoro-4-[7-methoxy-6-(3-morpholinopropoxy)quinazolin-4-yl]phenyl]benzenesulfonamide]
IC50 [1]: 0.0001 to 1 µM
IC50 [2]: 0.0001 to 1 µM

COc1cc2ncnc(-c3ccc(NS(=O)(=O)C4CC4)cc3F)c2cc1OCCCN1CCOCC1 [P-0251, N-[3-fluoro-4-[7-methoxy-6-(3-morpholinopropoxy)quinazolin-4-yl]phenyl]cyclopropanesulfonamide]
IC50 [1]: 10 to 200 µM
IC50 [2]: 0.0001 to 1 µM

COc1cc2ncnc(-c3ccc(NS(C)(=O)=O)cc3F)c2cc1OCCCN1CCOCC1 [P-0252, N-[3-fluoro-4-[7-methoxy-6-(3-morpholinopropoxy)quinazolin-4-yl]phenyl]methanesulfonamide]
IC50 [1]: 10 to 200 µM
IC50 [2]: 0.0001 to 1 µM

COc1cc2c(-c3ccc(NS(=O)(=O)N4CCCC4)cc3F)ncnc2cc1OCCCN1CCCCC1 [P-0253, N-[3-fluoro-4-[6-methoxy-7-[3-(1-piperidyl)propoxy]quinazolin-4-yl]phenyl]pyrrolidine-1-sulfonamide]
IC50 [1]: 1 to 10 µM
IC50 [2]: 0.0001 to 1 µM

[2H]C([2H])([2H])S(=O)(=O)Nc1ccc(-c2ncnc3cc(OCCCN4CCCCC4)c(OC)cc23)c(F)c1 [P-0254, 1,1,1-trideuterio-N-[3-fluoro-4-[6-methoxy-7-[3-(1-piperidyl)propoxy]quinazolin-4-yl]phenyl]methanesulfonamide]
IC50 [1]: 1 to 10 µM
IC50 [2]: 0.0001 to 1 µM

COc1ccc(S(=O)(=O)Nc2ccc(-c3ncnc4cc(OCCCN5CCCCC5)c(OC)cc34)c(F)c2)cc1 [P-0255, N-[3-fluoro-4-[6-methoxy-7-[3-(1-piperidyl)propoxy]quinazolin-4-yl]phenyl]-4-methoxy-benzenesulfonamide]
IC50 [1]: 0.0001 to 1 µM
IC50 [2]: 0.0001 to 1 µM

COc1cc2c(-c3ccc(NS(=O)(=O)c4ccc(Cl)cc4)cc3F)ncnc2cc1OCCCN1CCCCC1 [P-0256, 4-chloro-N-[3-fluoro-4-[6-methoxy-7-[3-(1-piperidyl)propoxy]quinazolin-4-yl]phenyl]benzenesulfonamide]
IC50 [1]: 0.0001 to 1 µM
IC50 [2]: 0.0001 to 1 µM

From patent publication US10227357B2, “Compounds and methods for kinase modulation, and indications therefor” (Plexxikon Inc., priority 2012, dated 2019)
